“Also recorded” adds a separate entry of the source.
Legend:
[1] = system: SW620 human colon cancer cell line; experiment: Trypan blue staining apoptosis assay; format: cell-based; settings: SW620 (p53 MT/LIG4 WT); 25 μM and 50 μM, 48 hours
Excerpt: (§1) In order to analyze the degree of apoptosis of Compound A, which is a novel PARP/Tankyrase simultaneous inhibitor according to a p53 genotype and LIG4 genotype, the present inventors treated a novel PARP/Tankyrase simultaneous inhibitor, Compound A, and a competitive drug PARP inhibitor, olaparib, in RKO, LoVo human colon cancer cell line in which the p53 gene is a normal type and the LIG4 gene is a mutant type and an SW620 human colon cancer cell line in which the p53 gene is a mutant type and the LIG4 gene is a normal type. The number of cells was measured by trypan blue staining assay to confirm the degree of apoptosis. The conditions and methods of the experiment were as follows: RKO, LoVo human colon cancer cell line in which the p53 gene is a normal type and the LIG4 gene is a mutant type and the SW620 human colon cancer cell line in which the p53 gene is a mutant type and the LIG4 gene is a normal type were cultured in RPMI1640 (10% FBS, 1% penicillin/streptomycin) and cultured in a 60 mm plate at 1×10^5 per well for 24 hours at 37° C. Compound A, which is a novel PARP/Tankyrase simultaneous inhibitor, and olaparib, which is a competitive drug PARP inhibitor, were treated with each of 25 μM and 50 μM and were cultured for 48 hours. The number of cells was measured by trypan blue staining assay to confirm the degree of apoptosis.
(§2) In order to analyze the degree of apoptosis of Compounds A and B, which are novel PARP/Tankyrase simultaneous inhibitors, in a cell line RKO in which the p53 genotype is a normal type and an LIG4 genotype is a mutant type, a cell line SW620 in which the p53 genotype is a mutant type and an LIG4 genotype is a normal type, a cell line HCT8 in which the p53 genotype and an LIG4 genotype are normal, and a cell line KM12C in which the p53 genotype and an LIG4 genotype are mutant, the human colon cancer cell lines of RKO, HCT, SW620 and KM12C with different p53 genotype and LIG4 genotype were cultured in RPMI1640 (10% FBS, 1% penicillin/streptomycin) and cultured in a 60 mm plate at 1×10^5 per well for 24 hours at 37° C. Compounds A and B, which are novel PARP/Tankyrase simultaneous inhibitors, and olaparib, which is a competitive drug PARP inhibitor, and NVP-TNKS656, which is a Tankyrase inhibitor, were treated with each of 25 μM and 50 μM. After 48 hours of culturing, the number of cells was measured by trypan blue staining assay to confirm the degree of apoptosis.

[2] = system: RKO human colon cancer cell line; experiment: Trypan blue staining apoptosis assay; format: cell-based; settings: RKO (p53 WT/LIG4 MT); 25 μM and 50 μM, 48 hours
Excerpt: as §1
In order to analyze the degree of apoptosis of Compound A, which is a novel PARP/Tankyrase simultaneous inhibitor, according to the p53 genotype and an LIG4 genotype, the present inventors treated Compounds A and B, which are novel PARP/Tankyrase simultaneous inhibitors, in the RKO and LoVo human colon cancer cell lines in which the p53 gene is a normal type and an LIG4 gene is a mutant type. Then, the number of cells was measured by trypan blue staining assay to confirm the degree of apoptosis. The RKO and LoVo human colon cancer cell lines were cultured under the same conditions as in Example 5. Compounds A and B, which are novel PARP/Tankyrase simultaneous inhibitors, were treated with 25 μM and 50 μM, respectively, for 48 hours. After 48 hours of culturing, the number of cells was measured by trypan blue staining assay to confirm the degree of apoptosis. […]

[3] = system: LoVo human colon cancer cell line; experiment: Trypan blue staining apoptosis assay; format: cell-based; settings: LoVo (p53 WT/LIG4 MT); 25 μM and 50 μM, 48 hours
Excerpt: as §1
In order to analyze the degree of apoptosis of Compound A, which is a novel PARP/Tankyrase simultaneous inhibitor, according to the p53 genotype and an LIG4 genotype, the present inventors treated Compounds A and B, which are novel PARP/Tankyrase simultaneous inhibitors, in the RKO and LoVo human colon cancer cell lines in which the p53 gene is a normal type and an LIG4 gene is a mutant type. Then, the number of cells was measured by trypan blue staining assay to confirm the degree of apoptosis. The RKO and LoVo human colon cancer cell lines were cultured under the same conditions as in Example 5. […] After 48 hours of culturing, the number of cells was measured by trypan blue staining assay to confirm the degree of apoptosis.

[4] = system: KM12C human colon cancer cell line; experiment: Xenograft tumor inhibition; format: in vivo, nude mouse (BALB/c-nude); settings: KM12C (p53 MT/LIG4 MT) xenograft, orally 25 mpk and 50 mpk daily
Excerpt: (§3) In order to analyze the tumor inhibition effect on Compound A, which is a novel PARP/Tankyrase simultaneous inhibitor, in an in vivo animal model when a p53 genotype and an LIG4 genotype are mutant types, the present inventors transplanted the KM12C human colon cancer cell line in which a p53 genotype and an LIG4 genotype are mutant types into a 6-week-old nude mouse (BALB/c-nude, purchased from the central experimental animal) and administered with Compound A, which is a novel PARP/Tankyrase simultaneous inhibitor, and olaparib, which is a competitive drug PARP inhibitor. Then, the size of tumor was measured to confirm the degree of tumor inhibition effect. The conditions and methods of the experiment were as follows: KM12C human colon cancer cell line in which a p53 genotype and an LIG4 genotype are mutant types was cultured in RPMI1640 (10% FBS, 1% penicillin/streptomycin). When the size of the tumor reached 100 mm^3 after being transplanted into a nude mouse per 1×10^7, Compound A, which is a novel PARP/Tankyrase simultaneous inhibitor, and olaparib, which is a competitive drug PARP inhibitor, were orally administered at 25 mpk and 50 mpk daily for a total of 18 days. The size of a tumor was measured every three days. After the completion of drug administration, the tumors were harvested and weighed.
as §3, with “on Compound B, which is” for “on Compound A, which is”, “with Compound B, which is” for “with Compound A, which is”, “PARP/Tankyrase simultaneous inhibitor. Then,” for “PARP/Tankyrase simultaneous inhibitor, and olaparib, which is a competitive drug PARP inhibitor. Then,”, “1×10^7, Compound B, which is” for “1×10^7, Compound A, which is”, “simultaneous inhibitor, was orally administered” for “simultaneous inhibitor, and olaparib, which is a competitive drug PARP inhibitor, were orally administered”, “total of 15 days. The” for “total of 18 days. The”

[5] = system: KM12C human colon cancer cell line; experiment: Trypan blue staining apoptosis assay; format: cell-based; settings: KM12C (p53 MT/LIG4 MT); 25 μM and 50 μM, 48 hours
Excerpt: as §2

[6] = system: HCT8 human colon cancer cell line; experiment: Trypan blue staining apoptosis assay; format: cell-based; settings: HCT8 (p53 WT/LIG4 WT); 25 μM and 50 μM, 48 hours
Excerpt: as §2

| Compound | degree of apoptosis (trypan blue cell count) [1] | degree of apoptosis (trypan blue cell count) [2] | degree of apoptosis (trypan blue cell count) [3] | tumor size ([4]; 18 days) | tumor weight ([4]; 18 days) | degree of apoptosis (trypan blue cell count) [5] | degree of apoptosis (trypan blue cell count) [6] | tumor size ([4]; 15 days) | tumor weight ([4]; 15 days) |
| --- | --- | --- | --- | --- | --- | --- | --- | --- | --- |
| O=C(c1cc(Cc2n[nH]c(=O)c3ccccc23)ccc1F)N1CCN(C(=O)C2CC2)CC1 [olaparib, reference compound] | low apoptosis effect; also recorded: No apoptosis occurred | no apoptosis effect was shown; also recorded: no change in apoptosis | no apoptosis effect was shown | no change | no change | No apoptosis occurred | No apoptosis occurred | – | – |
| N#Cc1ccc(N2CCN(Cc3ccc4c5c(c(=O)[nH]c4c3)CCCN5)CC2)nc1 [Compound B, 6-{4-[(5-oxo-1,2,3,4,5,6-hexahydrobenzo[h][1,6]naphthyridin-8-yl)methyl]piperazin-1-yl}nicotinonitrile] | No apoptosis occurred | apoptosis effect is high by virtue of Compound B as compared to Compound A; also recorded: possible to observe the apoptosis | apoptosis effect is high by virtue of Compound B as compared to Compound A | – | – | No apoptosis occurred | No apoptosis occurred | no change | no change |
| CCOc1cc(CN(C)C)cc2[nH]c(=O)c3c(c12)NCCC3 [Compound A, 8-[(dimethylamino)methyl]-10-ethoxy-1,2,3,4-tetrahydrobenzo[h][1,6]naphthyridin-5(6H)-one] | low apoptosis effect; also recorded: No apoptosis occurred | apoptosis was induced; also recorded: possible to observe the apoptosis | apoptosis was induced | no change | no change | No apoptosis occurred | No apoptosis occurred | – | – |
